We go through 25 compounds from US20240390340A1 (INCYTE CORPORATION, priority 2023, published 2024).

One test addresses KRAS G12V (Homo sapiens, UniProt P01116, G12V). In words: GDP-GTP exchange assay (bodipy-GDP/GppNHp, SOS1), KRAS G12V. Format: biochemical.
A further test addresses KRAS G12D (Homo sapiens, UniProt P01116, G12D). In words: GDP-GTP exchange assay (bodipy-GDP/GppNHp, SOS1), KRAS G12D. Format: biochemical.
Where [1] appears, read: KRAS G12V mutant, value for the most potent isomer quoted for certain compounds, read-out: G12V (KRAS G12V exchange assay IC50).
The mark [2] stands for this setting: bodipy-loaded KRAS G12D 2.5 nM, 4 h pre-incubation, value for the most potent isomer quoted for certain compounds, read-out: G12D (KRAS G12D exchange assay IC50).

The structures appear in SMILES notation. Where two headings read alike, the source gives them in different places.

Sequence of KRAS G12V (P01116 1-188 isoform P01116-2 G12V): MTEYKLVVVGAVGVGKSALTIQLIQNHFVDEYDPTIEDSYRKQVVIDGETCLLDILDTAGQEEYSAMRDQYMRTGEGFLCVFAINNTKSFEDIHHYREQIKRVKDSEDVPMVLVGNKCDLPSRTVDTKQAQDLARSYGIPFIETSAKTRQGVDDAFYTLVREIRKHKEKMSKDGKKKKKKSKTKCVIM
Sequence of KRAS G12D (P01116 1-188 isoform P01116-2 G12D): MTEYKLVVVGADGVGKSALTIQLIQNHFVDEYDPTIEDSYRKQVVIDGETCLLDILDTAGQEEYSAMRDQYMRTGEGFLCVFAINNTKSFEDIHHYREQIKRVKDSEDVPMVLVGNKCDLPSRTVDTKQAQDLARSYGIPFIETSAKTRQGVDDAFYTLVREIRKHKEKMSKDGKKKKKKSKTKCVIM

As for `Cc1nc2c(F)c(-c3cccc(Cl)c3Cl)c(CCC#N)cc2c2c1cc([C@H]1C[C@H](n3ccc(C(F)F)n3)CN1C(=O)C1CC1)n2[C@H]1[C@H]2CN[C@@H]1C2` [Example 318], the IC50 on KRAS G12V (setting [1]) and at KRAS G12D (setting [2]) was not above 100 nM in each case.
On to `Cc1nc2c(F)c(-c3cccc(Cl)c3Cl)c(CCC#N)cc2c2c1cc([C@H]1C[C@H](n3ncc(C#N)n3)CN1C(=O)C1CC1)n2[C@H]1[C@H]2CN[C@@H]1C2` [Example 346], for which the IC50 at KRAS G12V (setting [1]) and on KRAS G12D (setting [2]) was not above 100 nM throughout.
For `COC(=O)c1ncn([C@H]2C[C@H](c3cc4c(C)nc5c(F)c(-c6cccc(Cl)c6Cl)c(CCC#N)cc5c4n3[C@H]3[C@H]4CN[C@@H]3C4)N(C(=O)C3CC3)C2)n1` [Example 348], the IC50 on KRAS G12V (setting [1]) and on KRAS G12D (setting [2]) was not above 100 nM throughout.
In the case of `Cc1nc2c(F)c(-c3cccc(Cl)c3Cl)c(CCC#N)cc2c2c1cc([C@H]1C[C@H](Oc3ccnc(N4CC(OC(F)F)C4)c3)CN1C(=O)C1CC1)n2[C@H]1[C@H]2CN[C@@H]1C2` [Example 368], the IC50 at KRAS G12V (setting [1]) and at KRAS G12D (setting [2]) was not above 100 nM each time.
For the compound `Cc1nc2c(F)c(-c3cccc(Cl)c3Cl)c(CCC#N)cc2c2c1cc([C@H]1C[C@H](CCc3nccn3C)CN1C(=O)C1CC1)n2[C@H]1[C@H]2CN[C@@H]1C2` [Example 89], the IC50 on KRAS G12V (setting [1]) and at KRAS G12D (setting [2]) was not above 100 nM in each case.
For the compound `Cc1nc2c(F)c(-c3cccc(Cl)c3Cl)c(CCC#N)cc2c2c1cc([C@H]1C[C@H](O[C@H](C)c3ccccn3)[C@@H](C)N1C(=O)C1CC1)n2[C@H]1[C@H]2CN[C@@H]1C2` [Example 244], the half-inhibitory concentration (IC50) on KRAS G12V (setting [1]) and on KRAS G12D (setting [2]) was not above 100 nM each time.
`Cc1cc(CO[C@H]2C[C@H](c3cc4c(C)nc5c(F)c(-c6cccc(Cl)c6Cl)c(CCC#N)cc5c4n3[C@H]3[C@H]4CN[C@@H]3C4)N(C(=O)C3CC3)[C@H]2C)ns1` [Example 212]: the IC50 on KRAS G12V (setting [1]) and at KRAS G12D (setting [2]) was not above 100 nM in each case.
Regarding `Cc1nc2c(F)c(-c3cccc(Cl)c3Cl)c(CCC#N)cc2c2c1cc([C@H]1C[C@H](n3cc(C4CCCC4)nn3)CN1C(=O)C1CC1)n2[C@H]1[C@H]2CN[C@@H]1C2` [Example 183], the IC50 at KRAS G12V (setting [1]) and at KRAS G12D (setting [2]) was not above 100 nM throughout.
Consider `Cc1nc2c(F)c(-c3cccc(Cl)c3Cl)c(CCC#N)cc2c2c1cc([C@H]1C[C@H](n3cc(C4(C)CCCCC4)nn3)CN1C(=O)C1CC1)n2[C@H]1[C@H]2CN[C@@H]1C2` [Example 66, 3-(1-((1R,4R,5S)-2-Azabicyclo[2.1.1]hexan-5-yl)-2-((2R,4S)-1-(cyclopropanecarbonyl)-4-(4-(1-methylcyclohexyl)-1H-1,2,3-triazol-1-yl)pyrrolidin-2-yl)-7-(2,3-dichlorophenyl)-6-fluoro-4-methyl-1H-pyrrolo[3,2-c]quinolin-8-yl)propanenitrile], for which the IC50 on KRAS G12V (Table H, column G12V, for compounds isolated as several atropisomers/diastereoisomers the value for the most potent isomer is quoted, read-out: KRAS G12V exchange assay IC50) is not above 100 nM; on KRAS G12D (Table H, column G12D, for compounds isolated as several atropisomers/diastereoisomers the value for the most potent isomer is quoted, read-out: KRAS G12D exchange assay IC50) it was not above 100 nM.
Take `COc1cc(O[C@H]2C[C@H](c3cc4c(C)nc5c(F)c(-c6cccc(Cl)c6Cl)c(CCC#N)cc5c4n3[C@H]3[C@H]4CN[C@@H]3C4)N(C(=O)C3CC3)C2)ccc1C#N` [Example 287]: the IC50 at KRAS G12V (setting [1]) and at KRAS G12D (setting [2]) was not above 100 nM throughout.
For the compound `Cc1nc2c(F)c(-c3cccc(Cl)c3Cl)c(CCC#N)cc2c2c1cc([C@H]1C[C@H](OCc3cccnc3Cl)CN1C(=O)C1CC1)n2[C@H]1[C@H]2CN[C@@H]1C2` [Example 253], the IC50 on KRAS G12V (setting [1]) and on KRAS G12D (setting [2]) was not above 100 nM each time.
With `Cc1nc2cc(O[C@H]3C[C@H](c4cc5c(C)nc6c(F)c(-c7cccc(Cl)c7Cl)c(CCC#N)cc6c5n4[C@H]4[C@H]5CN[C@@H]4C5)N(C(=O)C4CC4)C3)ccc2s1` [Example 132], the IC50 on KRAS G12V (setting [1]) and at KRAS G12D (setting [2]) was not above 100 nM throughout.
On to `CNC(=O)c1ccc(-c2nc3c(F)c(-c4cccc(Cl)c4Cl)c(CCC#N)cc3c3c2cc([C@H]2C[C@H](OCc4c(F)cccc4F)CN2C(=O)C2CC2)n3[C@H]2[C@H]3CN[C@@H]2C3)cn1` [Example 220], for which the IC50 at KRAS G12V (setting [1]) and at KRAS G12D (setting [2]) was not above 100 nM in each case.
Take `Cc1nc2c(F)c(-c3cccc(Cl)c3Cl)c(CCC#N)cc2c2c1cc([C@H]1C[C@H](OC[C@@H]3CCCC[C@H]3C#N)CN1C(=O)C1CC1)n2[C@H]1[C@H]2CN[C@@H]1C2` [Example 285]: the IC50 on KRAS G12V (setting [1]) and on KRAS G12D (setting [2]) was not above 100 nM throughout.
As for `Cc1nc2c(F)c(-c3cccc(Cl)c3Cl)c(CCC#N)cc2c2c1cc([C@H]1C[C@H](OCc3c(F)cccc3F)CN1C(=O)N(C)c1ccccc1)n2[C@H]1[C@H]2CN[C@@H]1C2` [Example 197], the values for the IC50 at KRAS G12V (setting [1]) and at KRAS G12D (setting [2]) were not above 100 nM and 100 to 1000 nM, respectively.
On the same counts, the results for `CCOc1ncccc1O[C@H]1C[C@H](c2cc3c(C)nc4c(F)c(-c5cccc(Cl)c5Cl)c(CCC#N)cc4c3n2[C@H]2[C@H]3CN[C@@H]2C3)N(C(=O)C2CC2)C1` [Example 443] are not above 100 nM and not above 100 nM.
For `[2H]C([2H])(O[C@H]1C[C@H](c2cc3c(C)nc4c(F)c(-c5cccc(Cl)c5Cl)c(CCC#N)cc4c3n2[C@H]2[C@H]3CN[C@@H]2C3)N(C(=O)C2CC2)[C@@H]1C)c1nscc1C` [Example 242] the same measures were not above 100 nM and not above 100 nM.
On the same counts, the results for `COCCn1cc(O[C@H]2C[C@H](c3cc4c(C)nc5c(F)c(-c6cccc(Cl)c6Cl)c(CCC#N)cc5c4n3[C@H]3[C@H]4CN[C@@H]3C4)N(C(=O)C3CC3)C2)cn1` [Example 441] are not above 100 nM and not above 100 nM.
Take `COC(=O)[C@H]1C[C@H]1c1cn([C@H]2C[C@H](c3cc4c(C)nc5c(F)c(-c6cccc(Cl)c6Cl)c(CCC#N)cc5c4n3[C@H]3[C@H]4CN[C@@H]3C4)N(C(=O)C3CC3)C2)nn1` [Example 390]: the IC50 on KRAS G12V (setting [1]) and on KRAS G12D (setting [2]) was not above 100 nM in each case.
Consider `Cc1nc2c(F)c(-c3cccc(Cl)c3Cl)c(CCC#N)cc2c2c1cc([C@H]1C[C@H](Oc3ccc(C(F)(F)F)nc3)CN1C(=O)C1CC1)n2[C@H]1[C@H]2CN[C@@H]1C2` [Example 308], for which the IC50 at KRAS G12V (setting [1]) and on KRAS G12D (setting [2]) was not above 100 nM throughout.
With `Cc1nc2c(F)c(-c3cccc(Cl)c3Cl)c(CCC#N)cc2c2c1cc([C@H]1C[C@H](OCc3ccnn3C(F)(F)F)CN1C(=O)C1CC1)n2[C@H]1[C@H]2CN[C@@H]1C2` [Example 312], the IC50 on KRAS G12V (setting [1]) and at KRAS G12D (setting [2]) was not above 100 nM each time.
Take `Cc1nc2c(F)c(-c3cccc(Cl)c3Cl)c(CCC#N)cc2c2c1cc([C@H]1C[C@H](OCc3cnsc3)CN1C(=O)C1CC1)n2[C@H]1[C@H]2CN[C@@H]1C2` [Example 110]: the IC50 on KRAS G12V (setting [1]) and on KRAS G12D (setting [2]) was not above 100 nM each time.
On to `C[C@@H](O)c1nc2c(F)c(-c3cccc(Cl)c3Cl)c(CCC#N)cc2c2c1cc([C@H]1C[C@H](Oc3cc(F)ccn3)CN1C(=O)C1CC1)n2[C@H]1C2CNC1C2` (some centres unmarked) [Example 425], for which the IC50 at KRAS G12V (setting [1]) and at KRAS G12D (setting [2]) was not above 100 nM each time.
In the case of `Cc1nc2c(F)c(-c3cccc(Cl)c3Cl)c(CCC#N)cc2c2c1cc([C@H]1C[C@H](n3nnnc3C)CN1C(=O)C1CC1)n2[C@H]1[C@H]2CN[C@@H]1C2` [Example 397], the IC50 at KRAS G12V (setting [1]) and on KRAS G12D (setting [2]) was not above 100 nM each time.
Take `Cc1nc2c(F)c(-c3cccc(Cl)c3Cl)c(CCC#N)cc2c2c1cc([C@H]1C[C@H](OCc3c(F)cccc3F)CN1C(=O)C1CC1)n2[C@H]1[C@H]2CN[C@@H]1C2` [Example 115]: the IC50 at KRAS G12V (setting [1]) and on KRAS G12D (setting [2]) was not above 100 nM throughout.
